The supplement of paper PMC4932681

Columns and labels:
T-47D Tam1 [1] = assay: drug sensitivity score (DSS) (DSS (dimensionless)); higher = more sensitive; extreme values may be limits of the assay; settings: 4-OH-tamoxifen in medium 1 µM; 72 h
Protocol: (§1)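 FIMM FO2B library drugs were tested at 5 concentrations (10,000-fold range) for 72 h, with CellTiter-Glo viability normalised to DMSO and benzethonium chloride controls. The Drug Sensitivity Score (DSS) is computed from the fitted logistic dose-response curve (area-based; 0 = inactive). Resistant lines and the 'in 1µM tamoxifen' arms were tested in 1 µM 4-OH-tamoxifen.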

BT-474 Tam2 [2] = assay: as above; settings: 4-OH-tamoxifen in medium 1 µM; 72 h
Protocol: as §1

ZR-75-1 Tam2 [3] = assay: as above; settings: 4-OH-tamoxifen in medium 1 µM; 72 h
Protocol: as §1

MCF-7 [4] = assay: as above; settings: 72 h
Protocol: as §1

MCF-7 Tam1 [5] = assay: as above; settings: 4-OH-tamoxifen in medium 1 µM; 72 h
Protocol: as §1

BT-474 Tam1 [6] = assay: as above; settings: 4-OH-tamoxifen in medium 1 µM; 72 h
Protocol: as §1

T-47D [7] = assay: as above; settings: 72 h
Protocol: as §1

BT-474 [8] = assay: as above; settings: 72 h
Protocol: as §1

T-47D Tam2 = assay: as above; settings: 4-OH-tamoxifen in medium 1 µM; 72 h
Protocol: as §1

ZR-75-1 Tam1 [9] = assay: as above; settings: 4-OH-tamoxifen in medium 1 µM; 72 h
Protocol: as §1

ZR-75-1 [10] = assay: as above; settings: 72 h
Protocol: as §1

T-47D Tam1 [11] = assay: relative IC50 (midpoint of fitted logistic curve, plateau may be below 50% inhibition; CellTiter-Glo viability); higher = less potent; settings: 4-OH-tamoxifen in medium 1 µM; 72 h
Protocol: (§2)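 FIMM FO2B library drugs were plated at 5 concentrations spanning a 10,000-fold range in 384-well plates. Cells were incubated for 72 h at 37 °C and viability was read by CellTiter-Glo, normalised to DMSO (0% inhibition) and 100 µM benzethonium chloride (100% inhibition). IC50 values come from logistic dose-response fits (Breeze pipeline). Tamoxifen-resistant lines and the 'in 1µM tamoxifen' parental arms were tested in medium with 1 µM 4-OH-tamoxifen.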

BT-474 Tam2 [12] = assay: as above; settings: 4-OH-tamoxifen in medium 1 µM; 72 h
Protocol: as §2

MCF-7 [13] = assay: as above; settings: 72 h
Protocol: as §2

MCF-7 Tam1 [14] = assay: as above; settings: 4-OH-tamoxifen in medium 1 µM; 72 h
Protocol: as §2

BT-474 Tam1 [15] = assay: as above; settings: 4-OH-tamoxifen in medium 1 µM; 72 h
Protocol: as §2

T-47D [16] = assay: as above; settings: 72 h
Protocol: as §2

BT-474 [17] = assay: as above; settings: 72 h
Protocol: as §2

ZR-75-1 Tam2 [18] = assay: as above; settings: 4-OH-tamoxifen in medium 1 µM; 72 h
Protocol: as §2

ZR-75-1 Tam1 [19] = assay: as above; settings: 4-OH-tamoxifen in medium 1 µM; 72 h
Protocol: as §2

ZR-75-1 [20] = assay: as above; settings: 72 h
Protocol: as §2

Row | Structure (SMILES) | relative IC50 (T-47D Tam1 [11]) [µM] | relative IC50 (BT-474 Tam2 [12]) [µM] | relative IC50 (MCF-7 [13]; 4-OH-tamoxifen in medium 1 µM) [µM] | relative IC50 (MCF-7 Tam1 [14]) [µM] | relative IC50 (BT-474 Tam1 [15]) [µM] | relative IC50 (T-47D [16]; 4-OH-tamoxifen in medium 1 µM) [µM] | relative IC50 (BT-474 [17]; 4-OH-tamoxifen in medium 0 µM) [µM] | relative IC50 (MCF-7 [13]; 4-OH-tamoxifen in medium 0 µM) [µM] | relative IC50 (T-47D [16]; 4-OH-tamoxifen in medium 0 µM) [µM] | relative IC50 (BT-474 [17]; 4-OH-tamoxifen in medium 1 µM) [µM] | drug sensitivity score (T-47D Tam1 [1]) | drug sensitivity score (BT-474 Tam2 [2]) | drug sensitivity score (ZR-75-1 Tam2 [3]) | drug sensitivity score (MCF-7 [4]; 4-OH-tamoxifen in medium 0 µM) | drug sensitivity score (MCF-7 [4]; 4-OH-tamoxifen in medium 1 µM) | drug sensitivity score (MCF-7 Tam1 [5]) | drug sensitivity score (BT-474 Tam1 [6]) | drug sensitivity score (T-47D [7]; 4-OH-tamoxifen in medium 0 µM) | drug sensitivity score (T-47D [7]; 4-OH-tamoxifen in medium 1 µM) | drug sensitivity score (BT-474 [8]; 4-OH-tamoxifen in medium 0 µM) | drug sensitivity score (BT-474 [8]; 4-OH-tamoxifen in medium 1 µM) | drug sensitivity score (T-47D Tam2) | drug sensitivity score (ZR-75-1 Tam1 [9]) | drug sensitivity score (ZR-75-1 [10]; 4-OH-tamoxifen in medium 0 µM) | drug sensitivity score (ZR-75-1 [10]; 4-OH-tamoxifen in medium 1 µM) | relative IC50 (ZR-75-1 Tam2 [18]) [µM] | relative IC50 (ZR-75-1 Tam1 [19]) [µM] | relative IC50 (ZR-75-1 [20]; 4-OH-tamoxifen in medium 1 µM) [µM] | relative IC50 (ZR-75-1 [20]; 4-OH-tamoxifen in medium 0 µM) [µM]
1 | NC(=O)Nc1cc(-c2cccc(F)c2)sc1C(=O)N[C@H]1CCCNC1 [AZD7762] |  | > 1 | > 1 | > 1 | > 1 |  | > 1 | 0.129 | > 1 | > 1 | 3 | 0 | 0 | 3.41 | 0 | 0 | 0 | 0 | 2 | 0 | 0 | 2.77 | 0 | 0 | 0 | > 1 | > 1 | > 1 | 
2 | C1CN1c1nc(N2CC2)nc(N2CC2)n1 [Triethylenemelamine] |  | > 10 | > 10 | > 10 | > 10 | > 10 | > 10 | > 10 | > 10 | > 10 | 0.0501 | 0 | 0 | 0 | 0 | 0 | 0 | 0 | 0 | 0 | 0 | 0.12 | 0 | 0 | 0 | > 10 | > 10 | > 10 | > 10
3 | CN1CCc2c(c3ccccc3n2Cc2ccc(C(=O)NO)cc2)C1 [Tubastatin A] | > 10 |  |  | > 10 | 3.12 | > 10 | > 10 |  | > 10 |  | 0 | 0.145 | 0.301 | 0 | 0.884 | 0 | 1.77 | 0 | 0 | 0 | 0.725 | 0 | 0.0626 | 0.27 | 0.715 |  |  |  | 
4 | CC(C)(C)NC(=O)[C@H]1CC[C@H]2[C@@H]3CC[C@H]4NC(=O)C=C[C@]4(C)[C@H]3CC[C@]12C [Finasteride] |  |  |  | > 10 |  | > 10 | > 10 | > 10 | > 10 | > 10 | 0.762 | 0.793 | 0 | 0 | 0.553 | 0 | 1.69 | 0 | 0 | 0 | 0 | 0.298 | 0 | 0 | 0 | > 10 | > 10 | > 10 | > 10

More lines, main results first:

Row | relative IC50 (T-47D Tam1 [11]) [µM] | relative IC50 (BT-474 Tam2 [12]) [µM] | relative IC50 (MCF-7 [13]; 4-OH-tamoxifen in medium 1 µM) [µM] | relative IC50 (MCF-7 Tam1 [14]) [µM] | relative IC50 (BT-474 Tam1 [15]) [µM] | relative IC50 (T-47D [16]; 4-OH-tamoxifen in medium 1 µM) [µM] | relative IC50 (BT-474 [17]; 4-OH-tamoxifen in medium 0 µM) [µM] | relative IC50 (MCF-7 [13]; 4-OH-tamoxifen in medium 0 µM) [µM] | relative IC50 (T-47D [16]; 4-OH-tamoxifen in medium 0 µM) [µM] | relative IC50 (BT-474 [17]; 4-OH-tamoxifen in medium 1 µM) [µM] | Structure (SMILES) | drug sensitivity score (T-47D Tam1 [1]) | drug sensitivity score (BT-474 Tam2 [2]) | drug sensitivity score (ZR-75-1 Tam2 [3]) | drug sensitivity score (MCF-7 [4]; 4-OH-tamoxifen in medium 0 µM) | drug sensitivity score (MCF-7 [4]; 4-OH-tamoxifen in medium 1 µM) | drug sensitivity score (MCF-7 Tam1 [5]) | drug sensitivity score (BT-474 Tam1 [6]) | drug sensitivity score (T-47D [7]; 4-OH-tamoxifen in medium 0 µM) | drug sensitivity score (T-47D [7]; 4-OH-tamoxifen in medium 1 µM) | drug sensitivity score (BT-474 [8]; 4-OH-tamoxifen in medium 0 µM) | drug sensitivity score (BT-474 [8]; 4-OH-tamoxifen in medium 1 µM) | drug sensitivity score (T-47D Tam2) | drug sensitivity score (ZR-75-1 Tam1 [9]) | drug sensitivity score (ZR-75-1 [10]; 4-OH-tamoxifen in medium 0 µM) | drug sensitivity score (ZR-75-1 [10]; 4-OH-tamoxifen in medium 1 µM) | relative IC50 (ZR-75-1 Tam2 [18]) [µM] | relative IC50 (ZR-75-1 Tam1 [19]) [µM] | relative IC50 (ZR-75-1 [20]; 4-OH-tamoxifen in medium 1 µM) [µM] | relative IC50 (ZR-75-1 [20]; 4-OH-tamoxifen in medium 0 µM) [µM]
5 | 1.39 | > 10 | > 10 | > 10 | > 10 | > 10 | 2.41 |  |  |  | O=c1[nH]c(=O)n([C@H]2C[C@H](O)[C@@H](CO)O2)cc1F [Floxuridine] | 5.88 | 0 | 4.86 | 0.48 | 0 | 0 | 0 | 1.05 | 0 | 1.78 | 1.44 | 1.26 | 0.801 | 6.61 | 0.31 |  |  |  | 
6 | 0.335 |  | 1.08 | 0.389 | 0.571 |  | > 10 | 1.41 |  | 0.7 | COc1cc(F)c(F)c(Nc2ccc(I)cc2F)c1NS(=O)(=O)C1(C[C@H](O)CO)CC1 [Refametinib (RDEA119)] | 4.09 | 0.629 | 0 | 3.75 | 3.88 | 3.77 | 3.68 | 1.6 | 0.324 | 0 | 6.44 | 1.2 | 0 | 0.912 | 0 |  |  | > 10 | 
7 | 3.57 | > 10 |  | > 10 | > 10 | > 10 | > 10 |  |  | > 10 | CO[C@@]12[C@H](COC(N)=O)C3=C(C(=O)C(C)=C(N)C3=O)N1C[C@@H]1N[C@@H]12 [Mitomycin C] | 1.35 | 0 | 1.28 | 0.369 | 0.228 | 0 | 0 | 0.988 | 0 | 0 | 0 | 0.0558 | 1.75 | 0.734 | 0.75 |  |  |  | 
8 |  | 0.0034 |  | > 1 | 0.00212 | > 1 | 0.0134 | > 1 | > 1 | 0.00556 | C=CC(=O)N1CCC[C@@H](n2nc(-c3ccc(Oc4ccccc4)cc3)c3c(N)ncnc32)C1 | 2.76 | 29 | 0 | 0 | 2.36 | 0 | 31.9 | 0 | 0 | 18.1 | 26.2 | 0.549 | 0 | 0 | 0 | > 1 | > 1 | > 1 | > 1
